Assays:
[1] = target: S. Cerevisiae Elongation Factor 3 (Saccharomyces cerevisiae, UniProt P16521); test: Two-step gel assay for phosphate generated by EF-3 ATPase activity stimulated by ribosome binding; type: biochemical; settings: inhibitor amounts 5 picomole to 200 picomole; FIG. 7
Procedure: A two-step gel assay for detecting phosphate generated by S. Cerevisiae Elongation Factor 3 ATPase activity stimulated by Ribosomes binding
When fungal elongation factor 3 (EF-3) interacts with ribosomes, […] is stimulated. The inventors have applied CF-HTS to the assay for this activity.
An enzyme gel containing EF-3 (a highly temperature sensitive enzyme) and yeast ribosomes in EF-3 assay buffer was prepared. A substrate gel containing 1 mM ATP in assay buffer was also prepared. Both gels contained 2% dimethyl sulfoxide in low melting agarose (Gibco BRL), and were prepared at 37° C. and allowed to set for 30 minutes at 4° C. Serial dilutions of Poly-L-lysine, an inhibitor of EF-3 used as a control sample, was spotted onto PVDC film and dried (sample matrix). The assay was then conducted as in Example 1 by pre-incubating the enzyme gel with the inhibitors on the sample matrix. Then the enzyme gel was placed in contact with the substrate gel for 20 minutes. As in Example 1, the enzyme and substrate gels were stained with Malachite green/Ammonium Molybdate color development cocktail. Then the enzyme gel was imaged with a CCD camera. The inhibitor spots appear as clearer zones in a green background. FIG. 7 illustrates color development on the gel where inhibitor amounts varied from 5 picomole to 200 picomole.

IL-8a receptor = test: Gel/filter CF-HTS control: ^125 I-IL-8 binding to HEK cells expressing the IL-8a receptor; settings: ^125 I-IL-8 in agarose gel diffusing through cell matrix; FIG. 12
Procedure: HEK cells (ATCC, Bethesda, M.D.) expressing the IL-8a receptor were plated on a 75 mm diameter transwell membrane filter (Corning Costar Corp, Cambridge, Mass.) at a density of about 20 million cells per plate. They were allowed to attach to the membrane filter overnight in buffer (RPMI from Life Technologies, Grand Island, N.Y.) containing 10 mM Hepes (Sigma, St Louis, Mo.) at pH 7.2 and 37° C. After the cells were attached to the filter, the media was removed, and the cells were washed with fresh buffer to remove any unattached cells. The filters were inverted cell-side down and placed at an angle to allow excess media to drain, and then dried for 20 minutes. This was timed so that the cell matrix could be immediately used in the assay described below.
The ligand matrix was prepared by soaking ^125 I labeled IL-8 (Amersham, Inc., Arlington Heights, Ill.) into an agarose gel made by mixing 0.1 g agarose with 10 ml buffer, heating until molten, and then casting in a 8×7×0.075 cm gel apparatus. The gels were soaked overnight at RT while slowly mixing on a rotating platform (New Brunswick Scientific Co., Inc, Edison, N.J.). After soaking, the gels were dried for 20 minutes at RT just prior to use. This was timed so that the gel could be immediately used in the assay. […]

VanA = settings: statement on known inhibitor used as positive control; cited from earlier work

Chain of S. Cerevisiae Elongation Factor 3 (P16521 whole entry): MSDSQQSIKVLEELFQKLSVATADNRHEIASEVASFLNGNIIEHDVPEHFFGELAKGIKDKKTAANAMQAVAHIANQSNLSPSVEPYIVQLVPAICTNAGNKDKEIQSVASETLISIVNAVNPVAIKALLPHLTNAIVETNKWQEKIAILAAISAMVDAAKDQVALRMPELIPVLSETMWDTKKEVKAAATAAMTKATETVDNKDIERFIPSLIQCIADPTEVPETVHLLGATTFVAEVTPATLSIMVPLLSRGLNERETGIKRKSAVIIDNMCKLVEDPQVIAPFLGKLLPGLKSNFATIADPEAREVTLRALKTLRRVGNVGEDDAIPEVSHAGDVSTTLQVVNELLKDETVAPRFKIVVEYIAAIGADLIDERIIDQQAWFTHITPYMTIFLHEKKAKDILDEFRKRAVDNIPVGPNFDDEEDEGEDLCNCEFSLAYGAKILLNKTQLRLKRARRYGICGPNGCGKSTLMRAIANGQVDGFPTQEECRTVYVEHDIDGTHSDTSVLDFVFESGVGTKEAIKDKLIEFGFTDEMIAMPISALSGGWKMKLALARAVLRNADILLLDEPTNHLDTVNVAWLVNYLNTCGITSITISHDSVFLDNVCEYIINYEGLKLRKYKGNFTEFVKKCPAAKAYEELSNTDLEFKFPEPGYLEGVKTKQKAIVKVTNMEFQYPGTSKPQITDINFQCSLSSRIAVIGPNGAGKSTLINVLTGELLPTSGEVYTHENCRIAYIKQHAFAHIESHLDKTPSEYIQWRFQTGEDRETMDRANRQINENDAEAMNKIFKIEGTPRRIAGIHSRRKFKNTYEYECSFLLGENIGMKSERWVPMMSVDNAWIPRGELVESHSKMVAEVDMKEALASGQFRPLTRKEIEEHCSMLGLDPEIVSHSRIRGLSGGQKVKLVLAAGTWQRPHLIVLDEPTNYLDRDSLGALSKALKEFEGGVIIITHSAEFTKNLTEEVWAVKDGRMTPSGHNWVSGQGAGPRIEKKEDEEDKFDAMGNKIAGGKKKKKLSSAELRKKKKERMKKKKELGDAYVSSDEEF

For Poly-L-lysine, the “inhibition of EF-3 in gel assay (clearer zones in green background)” value [1] was “dose dependent signal of the inhibitor”.

For “^125 I-IL-8: ^125 I labeled IL-8 (Amersham)”, the “binding to HEK cells expressing the IL-8a receptor” value (IL-8a receptor) was “dose response”.

For `N[C@@H]1CONC1=O` [D-cycloserine], the “inhibition of VanA” value (VanA) is listed as “inhibits VanA in a dose-dependent manner”.

From US5976813A, “Continuous format high throughput screening” (priority 1997, dated 1999)
